Data set [1] relates to MC38 murine colon carcinoma. As to the kind of experiment: Example 1: tumor growth delay in MC38 syngeneic model, HBI-8000 at two doses alone and with PD-L1 inhibitor antibody. It counts as in vivo, C57BL/6 mice. Conditions: for Median TTE: endpoint 1000 mm^3 or Day 47; for % TGD: versus vehicle. The method, then:
In Example 1 HBI-8000 was tested in two doses as monotherapy and in two doses in combination with PD-L1 inhibitor antibody at 5 mg/kg. The experiment included a vehicle-treated group and a PD-L1 inhibitor antibody monotherapy group, which served as control groups for analysis of efficacy. Tumors were measured twice per week until the study was ended on Day 47. Each animal was euthanized when its tumor attained the endpoint tumor volume of 1000 mm^3 or on the final day of the study, whichever came first, and the time to endpoint (TTE) for each mouse was calculated. Treatment response was determined from an analysis of percent tumor growth delay (% TGD), defined as the percent increase in the median time to endpoint (TTE) for treated versus control mice; and by logrank significance of differences in survival among groups and regression responses.
Mice: Female C57BL/6 mice (Charles River Laboratories) were eight weeks old, with a body weight (BW) range of 15.4 to 22.0 grams on Day 1 of the study. The animals were fed ad libitum water (reverse osmosis, 1 ppm Cl), and NIH 31 Modified and Irradiated Lab Diet® consisting of 18.0% crude protein, 5.0% crude fat, and 5.0% crude fiber. The mice were housed on irradiated Enrich-o′cobs™ Laboratory Animal Bedding in static microisolators on a 12-hour light cycle at 20-22° C. (68-72° F.) and 40-60% humidity.
Tumor Cell Culture: MC38 murine colon carcinoma cells were maintained in Dulbecco's Modified Eagle Medium (DMEM) supplemented with 10% fetal bovine serum and 2 mM glutamine, 100 units/mL penicillin G sodium, 100 μg/mL streptomycin sulfate, and 25 μg/mL gentamicin. Cell cultures were maintained in tissue culture flasks in a humidified incubator at 37° C., in an atmosphere of 5% CO2 and 95% air.
Tumor Implantation: Cells were harvested during exponential growth, and resuspended in cold DMEM. Each mouse was inoculated subcutaneously in the right flank with 1×10^6 cells (0.1 mL of cell suspension). Tumors were calipered in two dimensions to monitor growth as their mean volume approached the desired 100-150 mm^3 range. Tumor burden was calculated using the formula:
[formula] • where w=width and l=length, in mm, of the tumor. Tumor weight may be estimated with the assumption that 1 mg is equivalent to 1 mm^3 of tumor volume. […]
Tumor Growth Delay: Tumors were measured using calipers twice per week, and each animal was euthanized when its tumor reached a volume of 1000 mm^3 or at the end of the study (D47), whichever came first. […] The time to endpoint (TTE) for analysis was calculated for each mouse by the following equation: […]

The target of data set [2] is HDAC 1 (Homo sapiens, UniProt Q13547). The settings on record: cited from earlier work.
Sequence of HDAC 1 (Q13547 whole entry): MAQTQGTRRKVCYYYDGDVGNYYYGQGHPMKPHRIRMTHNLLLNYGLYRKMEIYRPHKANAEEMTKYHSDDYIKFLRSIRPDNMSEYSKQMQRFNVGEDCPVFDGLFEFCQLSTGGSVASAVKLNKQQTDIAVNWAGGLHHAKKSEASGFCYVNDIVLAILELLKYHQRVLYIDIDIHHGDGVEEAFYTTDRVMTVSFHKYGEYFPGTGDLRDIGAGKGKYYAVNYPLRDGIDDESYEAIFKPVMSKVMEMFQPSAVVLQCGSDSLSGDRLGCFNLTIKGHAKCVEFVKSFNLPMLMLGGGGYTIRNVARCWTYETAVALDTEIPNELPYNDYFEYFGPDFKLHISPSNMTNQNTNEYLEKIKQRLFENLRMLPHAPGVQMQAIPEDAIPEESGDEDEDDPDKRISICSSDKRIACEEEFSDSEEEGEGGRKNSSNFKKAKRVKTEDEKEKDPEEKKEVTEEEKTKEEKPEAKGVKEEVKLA
Data set [3] deals with HDAC 2 (Homo sapiens, UniProt Q92769). Conditions: cited from earlier work.
Sequence of HDAC 2 (Q92769 whole entry): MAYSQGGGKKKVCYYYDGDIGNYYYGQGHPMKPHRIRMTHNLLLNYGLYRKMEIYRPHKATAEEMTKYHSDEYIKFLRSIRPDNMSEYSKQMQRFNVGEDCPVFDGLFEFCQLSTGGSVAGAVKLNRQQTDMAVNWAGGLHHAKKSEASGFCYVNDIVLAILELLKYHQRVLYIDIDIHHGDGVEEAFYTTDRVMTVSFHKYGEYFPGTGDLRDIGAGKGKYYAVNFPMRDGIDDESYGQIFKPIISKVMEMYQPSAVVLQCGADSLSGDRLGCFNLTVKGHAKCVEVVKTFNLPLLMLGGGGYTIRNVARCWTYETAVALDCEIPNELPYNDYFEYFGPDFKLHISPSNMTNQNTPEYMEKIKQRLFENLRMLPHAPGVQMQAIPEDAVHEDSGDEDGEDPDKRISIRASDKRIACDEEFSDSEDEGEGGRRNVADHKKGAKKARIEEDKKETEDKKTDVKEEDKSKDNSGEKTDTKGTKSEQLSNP
For data set [4] the following is noted: oral administration; cited from earlier work.
The mark [5] stands for this setting: HBI-8000 20 mg/kg p.o. qd×21, alone or plus anti-PDL-1 5 mg/kg i.p. biwk×3.
The mark [6] stands for this setting: HBI-8000 50 mg/kg p.o. qd×21, alone or plus anti-PDL-1 5 mg/kg i.p. biwk×3.

SMILES strings stand for the structures.

Regarding `Nc1cc(F)ccc1NC(=O)c1ccc(CNC(=O)/C=C/c2cccnc2)cc1` [HBI-8000, N-(2-amino-4-fluorophenyl)-4-[[[(2E)-1-oxo-3-(3-pyridinyl)-2-propen-1-yl]amino]methyl]benzamide], the “Median TTE” value in data set [1] (setting [5]) was 18.9 days; in data set [1] (setting [6]), 22.8 days. Also, the “% TGD” value in data set [1] (setting [5]) is given as −8%; in data set [1] (setting [6]) it was 11%. Further, the “inhibition of HDAC 1” value in data set [2] is listed as “low nanomolar concentrations”. Further, in data set [2] (versus Entinostat), the “activity at HDAC 1 compared with Entinostat” value is “more active than Entinostat”. In data set [3], the “inhibition of HDAC 2” value was “low nanomolar concentrations”. For the same compound, the “activity at HDAC 2 compared with Entinostat” value in data set [3] (versus Entinostat) was “more active than Entinostat”. Besides, the t1/2 result in data set [4] was “about 17 hours”.

The values are drawn from patent publication US11535670B2, “Combination therapies of HDAC inhibitors and PD-L1 inhibitors” (HUYABIO International, LLC, priority 2016, dated 2022).
